# Tests used:
# [1] = system: seborrhea of the scalp; conditions: prior art, cited from earlier work; for antiseborrheic effect of known additives: additives to cosmetic preparations
# [2] = system: brown skin surface lipid of the rats; test: Antiseborrheic effect in animal test: browning of the shaved back of rats (skin surface lipid), visual assessment under double blind conditions; type: in vivo, male Wistar rats; design: key to Evaluation method 2 (points difference between righthand and lefthand side) / Evaluation method 3 (difference in intensity of brown shades vs untreated control animals): ++: very large (≥99.9% probability); +: significant (≥95% probability); 0: minimal (95% probability); conditions: for reduction of sebum (threshold statement in text): at the concentration tested in the Table
# Source text: The antiseborrheic effect was closely studied using the animal tests described in the following: The test animals were male Wistar rats having a body weight of 220 to 230 g at the beginning of the tests. The degree of browning on the shaved back of the rats was visually assessed. Browning is produced by the brown skin surface lipid of the rats. This test is based on the observation that young male and female rats washed with surfactant solution or with a lipid solvent and also male rats systematically treated with oestrogen only have the normal light, pink-colored skin after shaving. At the same time, only comparatively very small quantities of lipids can be extracted from the shaved hairs. In order to assess effectiveness, the test substances in solution in alcohol were each brushed onto half the back of 6 rats. The other half was only treated with the solvent minus active substances. Over the test period of 14 days, the test substances were applied once daily for a total of 9 days. A group of 6 rats which remained completely untreated was used for further control. At the end of the test, the animals were shaved on their back and sides and were visually assessed independently by an examination panel of 6 people under double blind conditions. The first criterion evaluated was whether the majority of examiners correctly recognized the treated side, differentiation being carried out as follows: The second criterion evaluated was the difference between the righthand side and the lefthand side, each examiner having to award 1 point per animal on the following basis: darker side--1 point lighter side--0 point and both sides the same--0.5 point Significant differences between the untreated and treated sides in the second method of evaluation indicate the local effectiveness of a substance. The third criterion evaluated was the difference in intensity between the shades of brown using the following scale: 3 points--dark brown 2 points--medium brown 1 point--light brown 0 points--no browning In the third method of evaluation, total point differences are compared between the untreated control animals and the treated and untreated sides of the test animals, significant differences between the control animals and the treated side of the test animals again indicating the effectiveness of a substance. There is generally also a distinct difference between the untreated and treated sides of the same test animals. However, this difference is not always as clear as that between the control animals and the treated sides, for which there may be various reasons, such as mechanical transfer of substance from one side to the other or solvent influence. The following scheme was used for differentiating the effects according to evaluation methods 2 and 3: The sebum reduction is calculated from the points difference by working out the quotient between the points difference ΔP and the number of points for the control group Pk, and expressing the value obtained in percent. Sebum reduction=(ΔP/Pk ·100 [%] […]
# [3] = Conc. 0.5%, topical, once daily, 9 applications in 14 days
# [4] = Rattus norvegicus, 336 h, Conc. 0.5%, topical, once daily, 9 applications in 14 days, ΔP/Pk × 100, read-out: Sebum reduction
# [5] = Conc. 0.2%, topical, once daily, 9 applications in 14 days
# [6] = Rattus norvegicus, 336 h, Conc. 0.2%, topical, once daily, 9 applications in 14 days, ΔP/Pk × 100, read-out: Sebum reduction
# [7] = Conc. 1.0%, topical, once daily, 9 applications in 14 days
# [8] = Rattus norvegicus, 336 h, Conc. 1.0%, topical, once daily, 9 applications in 14 days, ΔP/Pk × 100, read-out: Sebum reduction
# [9] = Conc. 0.1%, topical, once daily, 9 applications in 14 days
molecule,measurement,setting,value
"3,7,11-trimethyl-2,6,10-dodecatrien-1-ol ethyl ether and/or acetate",antiseborrheic effect of known additives,[1],only a very weak antiseborrheic effect
"CCCCCCCCCCCCCCOc1ccc(CO)cc1 [A, 4-tetradecyloxybenzyl alcohol]","Evaluation method 1 (percentage of examiners noticing an effect, treated side recognized)",[2]; [3],++ (100%)
same,Evaluation method 2 (points difference between righthand and lefthand side),[2]; [3],++ (very large (≥99.9% probability))
same,Evaluation method 3 (difference in intensity of brown shades vs untreated control animals),[2]; [3],++ (very large (≥99.9% probability))
same,inhibition in vivo at 0.5 %,[2]; [4],97%
"CCCCCCCCCCOc1ccc(CO)cc1 [B, 4-decyloxybenzyl alcohol]","Evaluation method 1 (percentage of examiners noticing an effect, treated side recognized)",[2]; [5],++ (100%)
same,Evaluation method 2 (points difference between righthand and lefthand side),[2]; [5],++ (very large (≥99.9% probability))
same,Evaluation method 3 (difference in intensity of brown shades vs untreated control animals),[2]; [5],++ (very large (≥99.9% probability))
same,inhibition in vivo at 0.2 %,[2]; [6],95%
"OCc1ccccc1 [Benzyl alcohol, reference compound]","Evaluation method 1 (percentage of examiners noticing an effect, treated side recognized)",[2]; [7],0 (≤50%)
same,Evaluation method 2 (points difference between righthand and lefthand side),[2]; [7],0
same,Evaluation method 3 (difference in intensity of brown shades vs untreated control animals),[2]; [7],0
same,inhibition in vivo at 1 %,[2]; [8],0%
"CCCCCCCCCCOc1ccc(CCO)cc1 [C, 2-(4-decyloxyphenyl)-ethanol]","Evaluation method 1 (percentage of examiners noticing an effect, treated side recognized)",[2]; [7],++ (100%)
same,Evaluation method 2 (points difference between righthand and lefthand side),[2]; [7],++ (very large (≥99.9% probability))
same,Evaluation method 3 (difference in intensity of brown shades vs untreated control animals),[2]; [7],++ (very large (≥99.9% probability))
same,inhibition in vivo at 1 %,[2]; [8],56%
same,reduction of sebum (threshold statement in text),[2],at least 50%
"CCCCCCCCCCCCOc1ccc(CO)cc1 [D, 4-dodecyloxybenzyl alcohol]","Evaluation method 1 (percentage of examiners noticing an effect, treated side recognized)",[2]; [9],++ (100%)
same,Evaluation method 2 (points difference between righthand and lefthand side),[2]; [9],++ (very large (≥99.9% probability))
same,Evaluation method 3 (difference in intensity of brown shades vs untreated control animals),[2]; [9],++ (very large (≥99.9% probability))
same,inhibition in vivo at 0.1 %,"[2]; Rattus norvegicus, 336 h, Conc. 0.1%, topical, once daily, 9 applications in 14 days, ΔP/Pk × 100, read-out: Sebum reduction",88%
"CCCCCCOc1ccc(CO)cc1 [E, 4-hexyloxybenzyl alcohol]","Evaluation method 1 (percentage of examiners noticing an effect, treated side recognized)",[2]; [5],++ (100%)
same,Evaluation method 2 (points difference between righthand and lefthand side),[2]; [5],++ (very large (≥99.9% probability))
same,Evaluation method 3 (difference in intensity of brown shades vs untreated control animals),[2]; [5],++ (very large (≥99.9% probability))
same,inhibition in vivo at 0.2 %,[2]; [6],92%
"CCCCCCCCOc1ccc(CO)cc1 [F, 4-octyloxybenzyl alcohol]","Evaluation method 1 (percentage of examiners noticing an effect, treated side recognized)",[2]; [5],++ (100%)
same,Evaluation method 2 (points difference between righthand and lefthand side),[2]; [5],++ (very large (≥99.9% probability))
same,Evaluation method 3 (difference in intensity of brown shades vs untreated control animals),[2]; [5],++ (very large (≥99.9% probability))
same,inhibition in vivo at 0.2 %,[2]; [6],95%
"CCCCCCCCCCOc1ccccc1CO [G, 2-decyloxybenzyl alcohol]","Evaluation method 1 (percentage of examiners noticing an effect, treated side recognized)",[2]; [3],++ (100%)
same,Evaluation method 2 (points difference between righthand and lefthand side),[2]; [3],++ (very large (≥99.9% probability))
same,Evaluation method 3 (difference in intensity of brown shades vs untreated control animals),[2]; [3],++ (very large (≥99.9% probability))
same,inhibition in vivo at 0.5 %,[2]; [4],20%
"CCCCCCCCCCCCOc1cccc(CO)c1 [H, 3-dodecyloxybenzyl alcohol]","Evaluation method 1 (percentage of examiners noticing an effect, treated side recognized)",[2]; [3],++ (100%)
same,Evaluation method 2 (points difference between righthand and lefthand side),[2]; [3],++ (very large (≥99.9% probability))
same,Evaluation method 3 (difference in intensity of brown shades vs untreated control animals),[2]; [3],++ (very large (≥99.9% probability))
same,inhibition in vivo at 0.5 %,[2]; [4],69%
same,reduction of sebum (threshold statement in text),[2],at least 50%
"CCCCCCCCCCCCCCOc1cccc(CO)c1 [I, 3-tetradecyloxybenzyl alcohol]","Evaluation method 1 (percentage of examiners noticing an effect, treated side recognized)",[2]; [3],++ (100%)
same,Evaluation method 2 (points difference between righthand and lefthand side),[2]; [3],++ (very large (≥99.9% probability))
same,Evaluation method 3 (difference in intensity of brown shades vs untreated control animals),[2]; [3],++ (very large (≥99.9% probability))
same,inhibition in vivo at 0.5 %,[2]; [4],22%
"CCCCCCCCCCOc1cccc(CO)c1 [K, 3-decyloxybenzyl alcohol]","Evaluation method 1 (percentage of examiners noticing an effect, treated side recognized)",[2]; [3],++ (100%)
same,Evaluation method 2 (points difference between righthand and lefthand side),[2]; [3],++ (very large (≥99.9% probability))
same,Evaluation method 3 (difference in intensity of brown shades vs untreated control animals),[2]; [3],++ (very large (≥99.9% probability))
same,inhibition in vivo at 0.5 %,[2]; [4],53%
same,reduction of sebum (threshold statement in text),[2],at least 50%
S1SSSSSSS1 [sulfur],antiseborrheic effect of known additives,[1],without giving really satisfactory results in regard to efficacy
same,side effects of known additives,[1]; after prolonged use,frequently produce side effects after prolonged use
mercury,antiseborrheic effect of known additives,[1],without giving really satisfactory results in regard to efficacy

# Reference: patent US4668705A, “Sebosuppressive preparations containing alkoxyaryl alkanols” (Henkel Kommanditgesellschaft auf Aktien, priority 1983, dated 1987)
